{"source": "patent US20100130457A1", "about": "“Phenothiazine Derivatives for Treatment of Asthma” (Immune Control, Inc., priority 2008, published 2010)", "key": {"RPMI 8226": {"tested_on": "RPMI 8226", "assay": "Inhibition of proliferation of RPMI 8226 cells", "format": "cell-based, human", "settings": "RPMI cells in vitro", "text": "The next set of experiments was designed to assess compounds that have low levels of brain penetration for the ability of the test compounds to inhibit cellular proliferation. An exemplary in vitro assay is to screen for the ability of the test compounds to inhibit proliferation of the B-cell neoplastic cell line RPMI 8226 (a plasmacytoma derived from a multiple myeloma patient (Matsuoka, et al., 1967, Proc. Soc. Exp. Biol. Med. 125: 1246-1250). However other cell line can be used such as, U266 (established from an IgE-secreting myeloma patient (Nilsson, et al., 1970, Clin. Exp. Immunol., 7: 477-489) and ARH77 (an EBV transformed plasma cell leukemia (Burk, et al., 1978, Cancer Res. 38: 2508-2513).\nFIG. 1 is a graph depicting the effects on the test compounds on RPMI cell viability."}, "[1]": {"tested_on": "BALB/c mice, Af-induced allergic airway inflammation", "assay": "Bronchoalveolar lavage (BAL) analysis for cell count and cytokines in the asthma model", "format": "in vivo, mouse", "protocol": "Lungs from the tested animals in Example 2 were lavaged with either a small volume (1 ml) of sterile PBS or a large volume (5 ml) of sterile saline, and total and differential cell counts were performed as described previously (Haczku et al., 1999 Am. J. Respir. Crit. Care Med. 159: 1638-1643; Haczku et al., 2000 Am. J. Respir. Crit. Care Med. 161: 952-960).\nWith respect to the murine model of allergen induced AHR, BALB/c mice were sensitized and challenged via intranasal instillation of Aspergillus fumigatus (Af). Two hours prior to each intranasal challenge, cohorts of five mice were administered intra peritonially (i.p.) with ICI-735 (1 mg/ml), dexamethasone (10 mg/ml). Four hours after the last allergen challenge, airway function was assessed by flexivent. Differential cytokine and immune cell abundance were also accessed in BAL fluid."}, "human small airway": {"tested_on": "human small airway", "assay": "Human precision-cut lung slices (PCLS), small airway contraction", "settings": "for CCh-induced bronchoconstriction after pretreatment of lung slices: C-027 10^−5 M, formoterol 0.3 nM", "protocol": "Human precision-cut lung slices (PCLS) permit evaluation of pharmacological responses of novel drug candidates applied directly to their target tissue.\nHuman precision-cut lung slices (PCLS, 250 μm thick) containing a small airway were contracted to carbachol, histamine and passively sensitization to induce airway closure±pre-incubation with ICI-735 (10 μM; 2 hours); FIG. 13. For example, human lung slices containing a small airway were incubated overnight with either negative control IgG (4 μg/mL) or positive control IgE (4 μg/mL). The slices were tested as follows: 1) IgG+anti-IgE; 2) IgE+anti-IgE; 3) IgE+Dexamethasone (1 μM)+anti-IgE; and 4) IgE+ICI-735 (10 μM) +anti-IgE. Dexamethasone and ICI-735 were pre-incubated 2 hours prior to anti-IgE; anti-IgE is used to crosslink antibodies and induce mast cell degranulation, which is believed to release histamine and cause airway contract. […]\nHuman lung tissue contains multiple cell types, including mast cells, that localize in the region of airway smooth muscle, and that increase in number in individuals with asthma. Cross-linking of Fcε;R1 receptors on surfaces of mast cells leads to release of granules that contain smooth muscle contractile agonists, including histamine and leukotrienes.\nTo test C-027 as a blocker of histamine-induced bronchoconstriction, lung slices were incubated for 2 hours with C-027, and small airway contraction was evaluated after addition of increasing concentrations of histamine."}, "[2]": {"assay": "Pharmacokinetics, plasma levels in mice", "format": "in vivo, mouse", "protocol": "Mice were treated with either 1.0 mg/kg or 10 mg/kg of ICI-735 by way of intraperitoneal administration. The plasma levels of ICI-735 were measured at baseline and various time points following administration (FIG. 6). […] Without wishing to be bound by any particular theory, it is believed that the effectiveness of ICI-735 to treat asthma can be achieved with a low dose (e.g, 1.0 mg/kg dose).\nMice were also treated with either 2.5 mg/kg intravenously or 5 mg/kg orally of ICI-735. The plasma levels of ICI-735 were measured at baseline and various time points following administration (FIG. 7). […] It was determined that oral bioavailability was approximately 20%. Therefore, it is believed that ICI-735 administration orally at approximately 1 mg/kg/day is effective at reducing lung resistence in patients with asthma."}}, "note": "“Also recorded” adds a separate entry of the source."}
{"molecule": "NCC(=O)NCCN1CCN(CCCN2c3ccccc3Sc3ccc(C(F)(F)F)cc32)CC1", "note": "[ICI-735]", "values": [{"measurement": "ability to inhibit proliferation of RPMI cells", "setting": "RPMI 8226", "value": "did not inhibit proliferation of RPMI cells in vitro as well as some other compounds; also recorded: effective, but not as effective"}, {"measurement": "cytokine production in BAL", "setting": "[1]; Af-sensitized mice", "value": "little effect; also recorded: no significant effects"}, {"measurement": "total number of cells / immune cell infiltration in BAL", "setting": "[1]; asthmatic animals, treated vs untreated", "value": "not a significant difference; also recorded: little effect; also recorded: no significant effects"}, {"measurement": "histamine response at the highest concentration tested", "setting": "human small airway; 10 μM", "value": "does not completely prevent"}, {"measurement": "histamine-induced contraction / bronchoconstriction", "setting": "human small airway; 2 hours pre-incubation, increasing concentrations of histamine", "value": "antagonize; also recorded: blocks; also recorded: prevented"}, {"measurement": "CCh-induced bronchoconstriction after pretreatment of lung slices", "setting": "human small airway", "value": "antagonize; also recorded: prevents and reverses bronchoconstriction"}, {"measurement": "CCh-induced bronchoconstriction after pretreatment of lung slices", "setting": "human small airway; listed as C-027", "value": "blocks"}, {"measurement": "airway contraction to IgE/anti-IgE (passive sensitization, mast cell degranulation)", "setting": "human small airway; ICI-735 10 μM, dexamethasone 1 μM, pre-incubated 2 hours", "value": "antagonize; also recorded: attenuation; also recorded: blocks bronchoconstriction"}, {"measurement": "IL-13-induced airway hyper-responsiveness to CCh", "setting": "human small airway; IL-13 50 ng/mL overnight, compound one hour prior", "value": "diminishes"}, {"measurement": "relaxation of maximally contracted airway smooth muscle", "setting": "human small airway; in the presence of 30 μM CCh, isoproterenol 10 μM", "value": "induces relaxation"}, {"measurement": "plasma levels after oral 5 mg/kg dose versus intravenous 2.5 mg/kg dose", "setting": "[2]", "value": "comparable"}, {"measurement": "plasma levels after 1.0 mg/kg dose versus 10 mg/kg dose", "setting": "[2]; intraperitoneal", "value": "comparable"}, {"measurement": "bioavailability", "setting": "[2]; mouse, plasma, oral, 5 mg/kg orally vs 2.5 mg/kg intravenously", "value": "~20", "unit": "%"}]}
